Measured values from a melting point compilation (Tetko et al.; mined from patent text by program, amines drawn as free bases though some values may be those of a salt).

SMILES | melting point
CC#CCOc1ccc(SC(C(=O)NO)C2CCCCC2)cc1 (stereo not drawn) | 163 °C
CC(C)(C)OC(=O)N1CCc2cc(N)c(N)cc2CC1 | 147 to 149 °C
O=C(c1oc2ccc(N3CCN(Cc4ccccc4)CC3)cc2c1Br)N(Cc1ccccc1)Cc1ccccc1 | 196 to 198 °C
CNc1cc(F)ccc1C(C)=O | 52 to 53 °C
O=C1N[C@H](C(=O)O)Cc2cc(O)c(O)cc21 | 268 to 272 °C
Nc1ncnc2c1c(-c1ccc(Oc3ccccc3)cc1)cn2C1CCCC1 | 178 to 179 °C
N#Cc1ccccc1-c1c(O)ccc2c3c(oc12)-c1cc(O)ccc1CC3 | 277 to 279 °C
CCCc1c(C(=O)C(C)C)c2ccc(C(=O)OC)cc2n1Cc1ccccc1[N+](=O)[O-] | 166 °C
Cc1cc(C)cc(-c2nc(N)sc2-c2ccnc(NC(=O)c3ccccc3)c2)c1 | 120 to 123 °C
O=C1c2ccccc2C(=O)N1Cc1noc(-c2ncn3c2[C@@H]2CCN2C(=O)c2cc(F)ccc2-3)n1 | 287 to 288 °C
Cc1ccc(S(=O)C2CC3C(=O)C(c4ccc(F)cc4)=CC2N3C)cc1 (mixture of isomers) | 186 °C
O=Cc1ccc(-c2cccc(-c3ccc(OC(F)(F)F)cc3)n2)cc1 | 109 to 112 °C
CNc1nc(-c2cccc(-c3cncc(OC)c3)c2)c2cc(OC)c(OC)cc2n1 | 225 to 227 °C
Cc1nn(C)c(C)c1Oc1cc(Cl)cc(C#N)c1 | 114 to 116 °C
COCCOC(=O)C1=C(C)NN=C(C(=O)OC(C)C)C1c1cccc([N+](=O)[O-])c1 (stereo not drawn) | 146 to 148 °C
COC(=O)c1cc2c(OC(C)C)cccc2o1 | 43 to 45 °C
CCCCN(CC)c1nc(C)nc2c1C(C)(C)C(O)N2c1c(C)cc(C)cc1C (stereo not drawn) | 142 to 145 °C
CCCCCCCCCCCCCCCCSCCO | 50 °C
O=C(CN1CCN(CCSc2nc3cccc(C(F)(F)F)c3o2)CC1)Nc1c(C(F)(F)F)cc(OCc2ccccc2)cc1C(F)(F)F | 156 to 158 °C
COc1ccc2[nH]c(C(=O)C34CC5CC(CC(C5)C3)C4)cc2c1 | 229 to 231 °C
CCc1nc(/C=C/c2cn(-c3ccccc3)nc2OCc2cc(OCc3nc(-c4ccc(CC(=O)O)cc4)oc3C)no2)cs1 | 156 to 158 °C

SMILES | melting point
COc1ccc(C2=NN(C3CCCCCCC3)C(=O)[C@H]3CC=CC[C@@H]23)cc1OC (relative stereo) | 75 to 77 °C
N#CCc1ccc(-c2nc3ccccc3o2)cc1N | 198 to 199 °C
O=C1CCCc2ccc(-c3ccccc3)cc21 | 67 °C
CCOc1c2c(c([N+](=O)[O-])c(OCC)c1OCC)C(=O)OC2 | 82.5 to 84.5 °C
CC(=O)Nc1c(Cl)cc(C(C)=O)c2c1OCCO2 | 181 to 182 °C
Cc1cc(-c2ccc(C(F)(F)F)cc2)cnc1N=CN(C)C | 74 °C
O=c1ccc2cnc(Nc3ccccc3)nc2[nH]1 | > 350 °C
CCOC(=O)c1sc(Oc2ccccc2)c2c1CCC(C(OCC)OCC)C2=O (stereo not drawn) | 73 to 74 °C
COc1cc(C(C)C)c2c(c1)S(=O)(=O)N(COC(=O)C(C)(C)C)C2=O | 178 to 179 °C
CCOC(=O)C(C(=O)OCC)N1CS(=O)c2c(C)cc([N+](=O)[O-])cc21 (stereo not drawn) | 97 °C
CC(=O)NCc1nc2c(N)nc3cccnc3c2n1CC(C)(C)O | 198 to 200 °C
Cc1nc(C(F)(F)F)ccc1C(=O)C1=C(O)C2CC2C(C)(S(C)=O)C1=O (stereo not drawn) | 160 °C
CNC(=O)Cc1c(-c2cc(C)sc2C)nc2sc3ccccc3n12 | 238 to 239 °C
O=C(Nc1cccc2c(=O)cc(-c3nnn[nH]3)oc12)c1ccc2c(c1)CCC(COCc1ccccc1)O2 (stereo not drawn) | 214 to 216 °C
CC1CC(C)OP(=O)(Cc2ccc(N)cc2)O1 (stereo not drawn) | 160 to 161 °C
CC(C)(C)OC(=O)NCc1ccc(N2CC(C(=O)N3CCN(CCC(=O)OCc4ccccc4)CC3)OC2=O)cc1 (stereo not drawn) | 128 to 130 °C
CC1(C)COc2cc3ccccc3c(=O)n21 | 91 to 92 °C
CC(=O)c1ccc(Nc2nc(N)c(C(=O)c3sccc3C)s2)cc1 | 171 to 172 °C
CCOC(=O)C1Cc2cc3ccccc3n2C1 (stereo not drawn) | 55 to 57 °C
CCN1C(=O)C(=CC=C2C=C3c4ccccc4CCN3C3=C2CCCC3)C(=O)N(CC)C1=S | 320 °C
O=C(c1ccc(-c2cccs2)cc1)N1Cc2ccccc2Nc2ccccc21 | 114 to 116 °C

SMILES | melting point
COc1cc(CO)cc(OC)c1OCCO | 26 to 28 °C
Nc1nc(Nc2ccc(SC3(Cl)C=CC(C(F)(F)F)=CN3)cc2)sc1C(=O)c1c(Cl)cc(C(F)(F)F)cc1Cl (stereo not drawn) | 130 to 132 °C
C#CCn1c(-c2cc(Cl)nc(Cl)c2)nc(C)c(CC)c1=O | 143 to 144 °C
COc1ccccc1C(c1cccc2ccccc12)C(C)(C#N)C#N (stereo not drawn) | 175 to 177 °C
COc1ccc(CCNC(=O)C2CCC2)cc1 | 118 to 120 °C
O=C1Nc2ccccc2C(c2ccccc2F)=NC1Cc1cccs1 (racemic) | 189 to 191 °C
CN(C)C(=O)N(N=Cc1ccc(OC(F)(F)C(F)F)cc1)C(=N)NN=Cc1ccc(OC(F)(F)C(F)F)cc1 | 142 to 144 °C
CC(=O)Nc1nc(-c2cccnc2)c(-c2ccccc2)s1 | 264 to 267 °C
CCN(C(=O)C(C)(C)C)c1ccc(F)cc1F | 69 to 71 °C
N#Cc1ccc(C2=NOC3(CCN(C(=O)CCC(=O)O)CC3)C2)cc1 | 167 to 170 °C
Cc1cc(=O)[nH]c2nc(CCCCCN3CCN(c4cccc(Cl)c4Cl)CC3)ccc12 | 195 to 196 °C
CN1CCN(CCOc2cccc3c2c2cccc4c2n3C(c2ccccc2)CO4)CC1 (stereo not drawn) | 57 °C
COc1c(Cl)ccc(-c2nc(C(=O)NOC3CCCCO3)c(Cl)c(N)c2F)c1F (stereo not drawn) | 177 to 180 °C
COc1ccc(C2CC(=O)Nc3ccccc3C(=O)C2)cc1 (stereo not drawn) | 138 to 140 °C
Cc1c(C)c2c(c(C)c1O)CCC(C)(C(=O)N1CCC(Oc3ccc([N+](=O)[O-])cc3)C1)O2 (stereo not drawn) | 176 to 178 °C
CC(C)(C)CNc1cc(NCC(C)(C)C)nc(N2CCNCC2)n1 | 132 to 136 °C
CCOC(C)COC1CCNCC1 (stereo not drawn) | 68 to 70 °C
CCCN1C(=O)N2C[C@@H](Cc3ccccc3)N=C2c2c1nc(C=O)n2Cc1ccccc1 | 184 to 185 °C
CCOC(=O)/C=C/c1cc(-n2cnnn2)cc(C)c1N | 210 to 211 °C
C=Cc1cccc2[nH]c(C(=O)O)cc(=O)c12 | 265 to 266 °C
O=c1[nH]cc(Oc2ccccc2)cc1-c1csc(-c2ccncc2)n1 | 243 to 245 °C

The next lines start with the values.

melting point | SMILES
142 to 143 °C | CC(C)c1cccc(-c2ccc(F)cc2)c1/C=C/COc1ccc(C(=O)C(=O)O)cc1
96 °C | C#CCOc1ccc(NCc2ccc(Cl)nc2)c(C(=O)c2ccc(C(C)C)cc2)c1
209 to 213 °C | Cc1ccc(Nc2ccccc2C(=O)O)c([N+](=O)[O-])c1
184 to 185 °C | O=C(CNc1ccccc1)Nc1c(Cl)cccc1C(=O)O
165 to 169 °C | CCS(=O)(=O)c1ccc(F)c(C#Cc2cc(Cl)ccc2OCC(=O)O)c1
137 to 138 °C | O=C(O)c1cc(OCc2ccccc2)c(C(=O)c2ccc(Cl)cc2)c([N+](=O)[O-])c1
211 to 212 °C | N#Cc1ccc(Nc2cccc(I)c2)c([N+](=O)[O-])c1
182 to 185 °C | COc1ccc(-c2cc(-c3ccccc3C(=O)O)no2)cc1
128 to 131 °C | Cc1c(C)n(CC(F)F)c2c(OCc3ccccc3)nncc12
137 to 139 °C | C=Cc1cccc(-c2nc(CCOc3ccc(OC(C)(C)C(=O)O)cc3)c(C)o2)c1
211 to 212 °C | O=C(O)c1ccc(Cn2ccn(C3CCc4ccccc4C3)c2=S)cc1 (stereo not drawn)
142 to 143 °C | COc1ccc(-c2ncn(CCCCCCCC(=O)O)c2-c2ccc(OC)cc2)cc1
75 to 77 °C | CCOC(=O)c1c2ccc(Cl)cc2c(-c2ccccc2)n1CCN(CC)CC
169 to 171 °C | CCc1nc2c(N)nc3ccccc3c2n1CCOCCNS(C)(=O)=O
106 to 107 °C | CC(C)c1nc(CCCOc2ncccc2CC(=O)O)c(Cc2ccc(Cl)cc2Cl)s1
56 °C | CCOC(=O)C=Cc1ccc(Cl)c(Cl)c1
122 to 125 °C | CC(=O)Oc1nc(-c2ccc(C)cc2)sc1-c1ccccc1
251 to 254 °C | O=C(O)CN1C(=O)C(=Cc2ccc(OCc3ccc(F)cc3F)c(OCc3ccc(F)cc3F)c2)SC1=S

melting point | SMILES
> 250 °C | N#Cc1cnc2cc(F)c(O)cc2c1Cl
210 to 212 °C | CCCCc1ncc(/C=C(/C(=O)O)c2ccccc2)n1Cc1ccccc1Cl
152 to 153 °C | Clc1ccc(C2(Cl)c3ccc(Cl)cc3-c3ncncc32)cc1 (stereo not drawn)
120 to 121 °C | CON=C(c1cc(C)on1)c1ccccc1COc1ncc(Cl)cc1C(F)(F)F
125 °C | O=C(c1ccccc1)c1cc([N+](=O)[O-])ccc1NC1CC1
116 to 118 °C | CC(C)c1nc(CNS(C)(=O)=O)n(C)c1Sc1cc(Cl)cc(Cl)c1
132 to 134 °C | CCOC(=O)NC(C)CCC1(O)c2ccccc2CCc2c(C)cccc21 (stereo not drawn)
240 to 242 °C | NC(=O)c1c(Cl)c(-c2ccccc2)n2c1CN(S(=O)(=O)c1cccs1)CC2
231 to 233 °C | CN(CCF)c1ccc2cc(-c3nc4ccccc4s3)c(=O)oc2c1
276 to 278 °C | CCn1cc(C(=O)O)c(=O)cc1-c1ccc(N2CCCC2)cc1
73 to 75 °C | O=[N+]([O-])c1ccc(COP(=O)(COS(=O)(=O)C(F)(F)F)OCc2ccc([N+](=O)[O-])cc2)cc1
50 to 51 °C | COc1ccc(Cl)cc1C1=NC(C)(C)CO1
> 300 °C | O=C(O)CN1C(=O)C(=Cc2ccc(O)cc2)SC1=S
202 to 204 °C | COc1ccc2c(c1)CC(C(F)(F)F)N2C(=O)Nc1ccc(Oc2cccnc2)nc1 (stereo not drawn)
80 to 81 °C | COc1cc(CCC=O)ccc1OCc1nc(-c2ccccc2)oc1C
> 260 °C | O=C(O)COc1ccccc1Cn1nc(-c2cccs2)c(Cc2cc3c(cc2Cl)OCO3)c1C(=O)O
86 °C | CCN(CC)C(=O)c1ccc(Cl)c(C2(C)C(=O)N(Cc3ccc(OC)cc3OC)c3ccc(Cl)cc32)c1 (stereo not drawn)
